Data on ten compounds can be found in ChEMBL document CHEMBL3877255, “Structure-activity relationship (SAR) study and design strategies of nitrogen-containing heterocyclic moieties for their anticancer activities” (Eur J Med Chem, 2017).

Each structure is given as a SMILES string. Converted amounts (≈) assume the structure as drawn.

A short description of assay [1]: Cytotoxicity against human A549 cells measured after 3 days by MTT assay. In kind it is functional. Conditions: A549, 72 h.
The nature of assay [2]: Cytotoxicity against human A549 cells by sulforhodamine-B assay. In kind it is functional, cell-based.
Assay [3] can be described thus: Cytotoxicity against human NCI-H157 cells by sulforhodamine-B assay. The class given is functional, cell-based.
Assay [4] can be described thus: Cytotoxicity against human MCF7 cells by MTT assay. The class given is functional, cell-based.
A short description of assay [5]: Cytotoxicity against human MDA-MB-231 cells by MTT assay. The class given is functional, cell-based.
Assay [6] in a line: Cytotoxicity against human PC3 cells by MTT assay. In kind it is functional, cell-based. The following applies: PC-3.
A short description of assay [7]: Cytotoxicity against human DU145 cells by MTT assay. The following applies: DU-145. In kind it is functional, cell-based.
Assay [8] can be described thus: Cytotoxicity against human MCF7 cells measured after 3 days by MTT assay. In kind it is functional. Conditions: MCF7, 72 h.
Assay [9] in a line: Cytotoxicity against human Calu1 cells by sulforhodamine-B assay. Conditions: Calu-1. The class given is functional, cell-based.
The nature of assay [10]: Cytotoxicity against human HepG2 cells after 72 hrs by sulforhodamine-B assay. The class given is functional, cell-based. Conditions: HepG2, 72 h.
The target of assay [11] is cGMP-inhibited 3',5'-cyclic phosphodiesterase 3A (Homo sapiens, UniProt Q14432). As to the kind of experiment: Inhibition of human PDE3A using fluorescein-labelled cAMP as substrate measured after 60 mins by IMAP TR-FRET assay.
Chain of cGMP-inhibited 3',5'-cyclic phosphodiesterase 3A (Q14432 whole entry): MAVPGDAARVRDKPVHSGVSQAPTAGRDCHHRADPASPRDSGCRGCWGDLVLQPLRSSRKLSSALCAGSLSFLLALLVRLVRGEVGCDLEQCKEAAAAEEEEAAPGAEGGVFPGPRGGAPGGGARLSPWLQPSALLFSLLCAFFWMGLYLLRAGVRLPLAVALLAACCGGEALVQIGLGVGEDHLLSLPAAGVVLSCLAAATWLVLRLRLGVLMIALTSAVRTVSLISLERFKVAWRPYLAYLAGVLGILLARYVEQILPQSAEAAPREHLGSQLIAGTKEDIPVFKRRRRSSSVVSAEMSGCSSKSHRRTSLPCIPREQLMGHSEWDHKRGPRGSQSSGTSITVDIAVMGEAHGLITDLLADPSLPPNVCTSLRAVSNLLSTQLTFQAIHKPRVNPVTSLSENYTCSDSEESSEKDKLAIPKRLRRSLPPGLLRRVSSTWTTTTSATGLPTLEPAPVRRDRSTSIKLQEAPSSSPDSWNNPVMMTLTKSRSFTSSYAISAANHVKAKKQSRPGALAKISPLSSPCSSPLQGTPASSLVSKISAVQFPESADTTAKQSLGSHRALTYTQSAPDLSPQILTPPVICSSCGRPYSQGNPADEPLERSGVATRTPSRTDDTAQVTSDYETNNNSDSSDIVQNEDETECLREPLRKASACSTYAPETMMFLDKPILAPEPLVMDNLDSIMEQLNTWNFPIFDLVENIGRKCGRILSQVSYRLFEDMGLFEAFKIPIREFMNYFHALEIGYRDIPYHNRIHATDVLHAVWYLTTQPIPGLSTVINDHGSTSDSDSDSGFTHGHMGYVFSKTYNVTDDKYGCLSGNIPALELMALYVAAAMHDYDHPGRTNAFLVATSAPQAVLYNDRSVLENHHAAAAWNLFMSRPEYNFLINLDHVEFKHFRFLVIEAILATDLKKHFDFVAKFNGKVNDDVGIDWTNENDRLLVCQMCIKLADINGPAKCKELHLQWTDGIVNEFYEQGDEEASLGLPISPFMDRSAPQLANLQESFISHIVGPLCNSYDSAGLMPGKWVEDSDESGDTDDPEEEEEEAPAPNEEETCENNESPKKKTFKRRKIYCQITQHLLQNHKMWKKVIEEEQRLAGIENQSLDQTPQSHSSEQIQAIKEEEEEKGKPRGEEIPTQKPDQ
Assay [12] in a line: Cytotoxicity against human HeLa cells measured after 24 hrs by MTT assay. In kind it is functional, cell-based.
A short description of assay [13]: Cytotoxicity against human MCF7 cells measured after 24 hrs by MTT assay. In kind it is functional, cell-based. Conditions: MCF7, 24 h.
The nature of assay [14]: Cytotoxicity against human HeLa cells measured after 3 days by MTT assay. The class given is functional. Conditions: 72 h.

The compound `CC(C)NC(=O)c1cccc2c(Cc3cccc(Cl)c3)c3ccccc3nc12` showed a CC50 in assay [1] of 100 µg/mL (≈ 257 µM).

Take `Cc1onc(-c2ccc([N+](=O)[O-])cc2)c1C(=O)/C=C/c1ccccc1Br`: the values for the half-inhibitory concentration (IC50) in assay [2] and in assay [3] were 11.1 µM and 7.27 µM, respectively.

In the case of `Clc1cccc(Cl)c1C1=NO[C@@]2(CCCCO2)[C@H]1Br`, the IC50 in assay [4], in assay [5], in assay [6] and in assay [7] was 43 to 56 µM throughout.

In the case of `Cc1ccc2nc3ccccc3c(Nc3cccc(Cl)c3)c2c1`, the values for the CC50 in [1] and in assay [8] were 188 µg/mL (≈ 588 µM) and 212 µg/mL (≈ 667 µM), respectively.

On to `Cc1onc(-c2ccc([N+](=O)[O-])cc2)c1C(=O)/C=C/c1ccccc1Cl`, for which the results for the IC50 in [9] and in assay [3] were 2.07 µM and 1.35 µM, respectively.

The compound `COC(=O)c1ccccc1-n1c(N)c(C#N)c(-c2ccc(N(C)C)cc2)cc1=O` had a concentration for half-maximal inhibition (IC50) in assay [10] of 0.02 µM.

`Clc1ccc(C2=NO[C@@]3(CCCCO3)[C@H]2Br)cc1`: the half-maximal inhibitory concentration (IC50) in [4], in [5], in assay [6] and in assay [7] was 43 to 56 µM in each case.

Consider `COC(=O)c1ccccc1-n1c(N)c(C(N)=O)c(-c2ccc(N(C)C)cc2)cc1=O`, for which, in [10], the IC50 came out at 1.34 µM.

Turning to `CCSc1ncc(-c2cc(-c3ccc(Br)cc3)[nH]c(=N)c2C#N)n1Cc1ccccc1`, the figures for the 50% inhibitory concentration (IC50) in [11], in assay [12] and in assay [13] were 0.00376 µM, 34.3 µM and 50.2 µM, respectively.

Take `CC(C)NC(=O)c1cccc2c(Cc3ccc(C(=O)O)cc3)c3ccccc3nc12`: the cytotoxic concentration (CC50) in [14] was 47.5 µg/mL (≈ 119 µM).
